Measured values published in ChEMBL document CHEMBL3232945 (Eur J Med Chem, 2014).

Columns and labels:
Rattus norvegicus [1] = experiment: Antihypertensive activity in Wistar rat assessed as mean arterial pressure at 10 mg/kg, ip measured immediately at 0 min (reference value: 194.08 +/- 1.962 mmHg); type: functional, Artery; settings: route intraperitoneal
Rattus norvegicus [2] = experiment: Antihypertensive activity in Wistar rat assessed as mean arterial pressure at 10 mg/kg, ip measured immediately at 15 mins (reference value: 195.68 +/- 1.623 mmHg); type: functional, Artery; settings: route intraperitoneal
Rattus norvegicus [3] = experiment: Antihypertensive activity in Wistar rat assessed as mean arterial pressure at 10 mg/kg, ip measured immediately at 30 mins (reference value: 194.72 +/- 1.002 mmHg); type: functional, Artery; settings: route intraperitoneal
Rattus norvegicus [4] = experiment: Antihypertensive activity in Wistar rat assessed as mean arterial pressure at 10 mg/kg, ip measured immediately at 45 mins (reference value: 193.96 +/- 0.865 mmHg); type: functional, Artery; settings: route intraperitoneal
Rattus norvegicus [5] = experiment: Antihypertensive activity in Wistar rat assessed as mean arterial pressure at 10 mg/kg, ip measured immediately at 60 mins (reference value: 195.11 +/- 0.531 mmHg); type: functional, Artery; settings: route intraperitoneal
Rattus norvegicus [6] = experiment: Toxicity in […] normotensive Wistar rat assessed as mean arterial pressure at 10 mg/kg, ip measured immediately at 0 min (reference value: 94.21 +/- 2.065 mmHg); type: organism-based, Artery; parameters: dose 10 mg/kg, route intraperitoneal; settings: in vivo, 0 h
Rattus norvegicus [7] = experiment: Toxicity in […] normotensive Wistar rat assessed as mean arterial pressure at 10 mg/kg, ip after 15 mins (reference value: 93.81 +/- 1.543 mmHg); type: organism-based, Artery; parameters: dose 10 mg/kg, route intraperitoneal; settings: in vivo, 0.25 h
Rattus norvegicus [8] = experiment: Toxicity in […] normotensive Wistar rat assessed as mean arterial pressure at 10 mg/kg, ip after 30 mins (reference value: 94.68 +/- 1.213 mmHg); type: organism-based, Artery; parameters: dose 10 mg/kg, route intraperitoneal; settings: in vivo, 0.5 h
Rattus norvegicus [9] = experiment: Toxicity in […] normotensive Wistar rat assessed as mean arterial pressure at 10 mg/kg, ip after 45 mins (reference value: 94.83 +/- 0.943 mmHg); type: organism-based, Artery; parameters: dose 10 mg/kg, route intraperitoneal; settings: in vivo, 0.75 h
Rattus norvegicus [10] = experiment: Toxicity in […] normotensive Wistar rat assessed as mean arterial pressure at 10 mg/kg, ip after 60 mins (reference value: 95.07 +/- 1.973 mmHg); type: organism-based, Artery; parameters: dose 10 mg/kg, route intraperitoneal; settings: in vivo, 1 h
Rattus norvegicus [11] = experiment: Toxicity in anesthetized-normotensive Wistar rat assessed as heart rate at 15 mg/kg, ip measured immediately at 0 min (reference value: 316.62 +/- 9.643 bpm); type: organism-based; parameters: dose 15 mg/kg, route intraperitoneal; settings: in vivo, 0 h
Rattus norvegicus [12] = experiment: Toxicity in anesthetized-normotensive Wistar rat assessed as heart rate at 15 mg/kg, ip after 15 mins (reference value: 313.93 +/- 9.912 bpm); type: organism-based; parameters: dose 15 mg/kg, route intraperitoneal; settings: in vivo, 0.25 h
Rattus norvegicus [13] = experiment: Toxicity in anesthetized-normotensive Wistar rat assessed as heart rate at 15 mg/kg, ip after 30 mins (reference value: 317.68 +/- 7.631 bpm); type: organism-based; parameters: dose 15 mg/kg, route intraperitoneal; settings: in vivo, 0.5 h
Rattus norvegicus [14] = experiment: Toxicity in anesthetized-normotensive Wistar rat assessed as heart rate at 15 mg/kg, ip after 60 mins (reference value: 314.96 +/- 9.442 bpm); type: organism-based; parameters: dose 15 mg/kg, route intraperitoneal; settings: in vivo, 1 h
Rattus norvegicus [15] = experiment: Antiarrhythmic activity in barium chloride-induced Wistar rat assessed as increase in appearance time of arrhythmia at 15 mg/kg, ip administered 60 mins before barium chloride challenge (reference value: 129.4 +/- 4.373 sec); type: functional, Heart; settings: route intraperitoneal
Rattus norvegicus [16] = experiment: Antiarrhythmic activity in barium chloride-induced Wistar rat assessed as increase in mortality time at 15 mg/kg, ip administered 60 mins before barium chloride challenge (reference value: 682.8 +/- 9.656 secs); type: functional, Heart; settings: route intraperitoneal
Rattus norvegicus [17] = experiment: Toxicity in anaesthetized-Wistar rat assessed as Q-T ECG interval at 15 mg/kg, ip after 45 mins (reference value: 78.8 +/- 0.927 ms); type: organism-based; parameters: dose 15 mg/kg, route intraperitoneal; settings: in vivo, 0.75 h
Rattus norvegicus [18] = experiment: Toxicity in anaesthetized-Wistar rat assessed as Q-T ECG interval at 15 mg/kg, ip after 60 mins (reference value: 79.7 +/- 0.965 ms); type: organism-based; parameters: dose 15 mg/kg, route intraperitoneal; settings: in vivo, 1 h

Compound	Activity (Rattus norvegicus [1]) [mmHg]	Activity (Rattus norvegicus [2]) [mmHg]	Activity (Rattus norvegicus [3]) [mmHg]	Activity (Rattus norvegicus [4]) [mmHg]	Activity (Rattus norvegicus [5]) [mmHg]	Activity (Rattus norvegicus [6]) [mmHg]	Activity (Rattus norvegicus [7]) [mmHg]	Activity (Rattus norvegicus [8]) [mmHg]	Activity (Rattus norvegicus [9]) [mmHg]	Activity (Rattus norvegicus [10]) [mmHg]	Activity (Rattus norvegicus [11]) [bpm]	Activity (Rattus norvegicus [12]) [bpm]	Activity (Rattus norvegicus [13]) [bpm]	Activity (Rattus norvegicus [14]) [bpm]	Time (Rattus norvegicus [15]) [s]	Time (Rattus norvegicus [16]) [s]	Activity (Rattus norvegicus [17]) [min]	Activity (Rattus norvegicus [18]) [ms]
CC(C)NCC(O)COc1cccc2ccccc12 (stereo not drawn) [PROPRANOLOL]	195.12	171.73	148.53	120.32	152.26	92.56	79.43	62.96	65.87	70.21								
C=C[C@H]1CN2CC[C@H]1C[C@@H]2[C@@H](O)c1ccnc2ccc(OC)cc12 [QUINIDINE]											311.8	285.16	246.18	286.32	394.8	1281.8	91.3	90.6
